US20260365670A1, “EGFR INHIBITORS AND USES THEREOF” (DIZAL (JIANGSU) PHARMACEUTICAL CO., LTD., priority 2022, published 2026)
Read-outs that look alike come from different tables or passages of the source.

How the values were obtained:
[1] = system: PC-9; test: Cell proliferation assay, PC-9 cells (CellTiter-Glo, 72 hours); assay type: cell-based; details: PC9 cells, CellTiter-Glo, read-out: PC9 GI50
Procedure, shortened: (§1)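 Cells are exposed to graded compound concentrations after overnight plating, using 500 PC-9 or 5000 Ba/F3 per well. Baseline-subtracted viability is compared with vehicle to give percent proliferation, then GI50.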

[2] = target: T1, EGFR Exon19Del (Homo sapiens, UniProt P00533, DEL746-750); test: Inhibition of EGFR Exon19Del biochemical enzymatic activity (HTRF); details: EGFR Del19, 1 mM ATP, 1 h, room temperature, read-out: IC50 @Del19
T1 construct: purchased Carna Bio
Procedure, shortened: (§2)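 HTRF kinase assay: each EGFR enzyme phosphorylated 1 μM biotinylated TK substrate with 1 mM ATP in buffer containing 5 mM MgCl2, 1 mM MnCl2, 0.01% CHAPS, 1 mM DTT, 0.5% DMSO. After 1 h at room temperature, EDTA detection mix stopped the reaction. IC50 came from a four-parameter logistic fit of the 665/615 nm ratio.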

[3] = target: T2, EGFR L858R (Homo sapiens, UniProt P00533, L858R); test: Inhibition of EGFR L858R biochemical enzymatic activity (HTRF); details: 1 mM ATP, 1 h, room temperature, read-out: IC50 (nM) @L858R
T2 construct: purchased Carna Bio
Procedure, shortened: as §2

[4] = target: T3, EGFR[T790M/C797S/d746-750] (Homo sapiens, UniProt P00533, C797S/DEL746-750/T790M); test: Inhibition of EGFR[T790M/C797S/d746-750] biochemical enzymatic activity (HTRF); details: EGFR T790M-C797S-Del19, 1 mM ATP, 1 h, room temperature, read-out: IC50 (nM) @T790M - C797S - Del19
T3 construct: purchased Carna Bio
Procedure, shortened: as §2

[5] = system: Ba/F3 cells expressing EGFR mutations; test: Cell proliferation assay, Ba/F3 cells expressing EGFR mutations (CellTiter-Glo, 72 hours); assay type: cell-based; details: CellTiter-Glo
Procedure, shortened: as §1

[6] = target: T4, EGFR L858R/T790M (Homo sapiens, UniProt P00533, L858R/T790M); test: Inhibition of EGFR L858R/T790M biochemical enzymatic activity (HTRF); details: EGFR L858R-T790M, 1 mM ATP, 1 h, room temperature, read-out: IC50 (nM) @L858R-T790M
T4 construct: purchased Carna Bio
Procedure, shortened: as §2

[7] = target: T5, EGFR (d746-750 C797S) (Homo sapiens, UniProt P00533, C797S/DEL746-750); test: Inhibition of EGFR (d746-750 C797S) biochemical enzymatic activity (HTRF); details: EGFR Del19-C797S, 1 mM ATP, 1 h, room temperature, read-out: IC50 (nM) @Del19-C797S
T5 construct: purchased signalchem
Procedure, shortened: as §2

[8] = target: T6, EGFR[T790M/C797S/L858R] (Homo sapiens, UniProt P00533, C797S/L858R/T790M); test: Inhibition of EGFR[T790M/C797S/L858R] biochemical enzymatic activity (HTRF); details: EGFR T790M-C797S-L858R, 1 mM ATP, 1 h, room temperature, read-out: IC50 (nM) @T790M- C797S - L858R
T6 construct: purchased Carna Bio
Procedure, shortened: as §2

[9] = target: T7, EGFR wild type (Homo sapiens, UniProt P00533); test: Inhibition of EGFR wild type biochemical enzymatic activity (HTRF); details: EGFR WT, 1 mM ATP, 1 h, room temperature, read-out: IC50 (nM) @WT
T7 construct: purchased Carna Bio
Procedure, shortened: as §2

[10] = target: T8, EGFR Exon19Del/T790M (Homo sapiens, UniProt P00533, DEL746-750/T790M); test: Inhibition of EGFR Exon19Del/T790M biochemical enzymatic activity (HTRF); details: EGFR Del19-T790M, 1 mM ATP, 1 h, room temperature, read-out: IC50 (nM) @Del19-T790M
T8 construct: purchased Carna Bio
Procedure, shortened: as §2

[11] = system: A-431; test: Cell proliferation GI50, A-431 cells (Table 6); assay type: cell-based
[12] = target: T9, EGFR (C797S L858R) (Homo sapiens, UniProt P00533, C797S/L858R); test: Inhibition of EGFR (C797S L858R) biochemical enzymatic activity (HTRF); details: EGFR L858-C797S, 1 mM ATP, 1 h, room temperature, read-out: IC50 (nM) @L858-C797S
T9 construct: purchased signalchem
Procedure, shortened: as §2

[13] = Mus musculus, BaF3, 72 h, BaF3 cells, EGFR DEL19-C797S, read-out: DEL19-C797S/BaF3 GI50
[14] = Mus musculus, BaF3, 72 h, BaF3 cells, EGFR DEL19-T790-C797S, read-out: DEL19-T790-C797S/BaF3 GI50
[15] = Mus musculus, BaF3, 72 h, BaF3 cells, EGFR L858R, read-out: L858R/BaF3 GI50
[16] = Mus musculus, BaF3, 72 h, BaF3 cells, EGFR L858R-C797S, read-out: L858R-C797S/BaF3 GI50
[17] = Mus musculus, BaF3, 72 h, BaF3 cells, EGFR L858R-T790-C797S, read-out: L858R-T790-C797S/BaF3 GI50
[18] = Mus musculus, BaF3, 72 h, BaF3 cells, EGFR L858R-T790M, read-out: L858R-T790M/BaF3 GI50
[19] = Mus musculus, BaF3, 72 h, EGFR DEL19-T790M, read-out: DEL19-T790M GI50
[20] = Homo sapiens, A-431, A-431 cells
[21] = BaF3 cells, EGFR DEL19-C797S, read-out: DEL19-C797S/BaF3 GI50
[22] = BaF3 cells, EGFR DEL19-T790-C797S, read-out: DEL19-T790-C797S/BaF3 GI50
[23] = BaF3 cells, EGFR L858R, read-out: L858R/BaF3 GI50
[24] = BaF3 cells, EGFR L858R-C797S, read-out: L858R-C797S/BaF3 GI50
[25] = BaF3 cells, EGFR L858R-T790-C797S, read-out: L858R-T790-C797S/BaF3 GI50
[26] = BaF3 cells, EGFR L858R-T790M, read-out: L858R-T790M/BaF3 GI50
[27] = EGFR DEL19-T790M, read-out: DEL19-T790M GI50

T7 sequence (P00533 25-1210): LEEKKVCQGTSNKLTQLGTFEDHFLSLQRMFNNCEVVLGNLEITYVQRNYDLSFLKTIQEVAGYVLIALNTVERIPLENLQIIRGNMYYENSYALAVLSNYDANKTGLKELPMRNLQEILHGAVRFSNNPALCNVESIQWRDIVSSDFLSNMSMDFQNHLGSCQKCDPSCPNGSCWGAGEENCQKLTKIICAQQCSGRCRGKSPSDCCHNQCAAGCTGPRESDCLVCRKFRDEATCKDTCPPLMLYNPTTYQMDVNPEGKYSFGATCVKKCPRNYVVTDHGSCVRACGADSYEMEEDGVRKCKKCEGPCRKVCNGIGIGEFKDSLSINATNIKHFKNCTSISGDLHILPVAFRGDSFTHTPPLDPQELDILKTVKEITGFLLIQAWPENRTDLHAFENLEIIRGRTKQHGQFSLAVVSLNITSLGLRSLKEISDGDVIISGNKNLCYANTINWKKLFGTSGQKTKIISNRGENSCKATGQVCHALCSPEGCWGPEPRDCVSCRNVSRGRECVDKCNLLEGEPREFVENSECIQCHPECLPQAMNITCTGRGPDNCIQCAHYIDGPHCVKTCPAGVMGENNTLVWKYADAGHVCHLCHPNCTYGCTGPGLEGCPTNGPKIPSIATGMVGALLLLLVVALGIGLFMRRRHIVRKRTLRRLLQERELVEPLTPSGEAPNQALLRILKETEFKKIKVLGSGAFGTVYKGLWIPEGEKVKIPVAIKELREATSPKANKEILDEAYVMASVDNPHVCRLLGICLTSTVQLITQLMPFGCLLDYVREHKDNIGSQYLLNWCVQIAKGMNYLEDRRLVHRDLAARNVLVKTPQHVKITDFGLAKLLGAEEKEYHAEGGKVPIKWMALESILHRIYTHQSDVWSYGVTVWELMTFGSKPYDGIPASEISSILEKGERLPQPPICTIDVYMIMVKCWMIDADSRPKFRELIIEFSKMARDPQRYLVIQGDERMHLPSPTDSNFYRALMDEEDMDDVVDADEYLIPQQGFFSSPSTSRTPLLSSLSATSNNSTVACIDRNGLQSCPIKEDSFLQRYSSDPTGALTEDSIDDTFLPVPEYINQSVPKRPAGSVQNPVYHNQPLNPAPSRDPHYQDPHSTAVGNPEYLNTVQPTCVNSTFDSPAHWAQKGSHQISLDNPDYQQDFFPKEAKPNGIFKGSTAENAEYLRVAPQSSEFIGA
T9 sequence (P00533 25-1210 C797S/L858R): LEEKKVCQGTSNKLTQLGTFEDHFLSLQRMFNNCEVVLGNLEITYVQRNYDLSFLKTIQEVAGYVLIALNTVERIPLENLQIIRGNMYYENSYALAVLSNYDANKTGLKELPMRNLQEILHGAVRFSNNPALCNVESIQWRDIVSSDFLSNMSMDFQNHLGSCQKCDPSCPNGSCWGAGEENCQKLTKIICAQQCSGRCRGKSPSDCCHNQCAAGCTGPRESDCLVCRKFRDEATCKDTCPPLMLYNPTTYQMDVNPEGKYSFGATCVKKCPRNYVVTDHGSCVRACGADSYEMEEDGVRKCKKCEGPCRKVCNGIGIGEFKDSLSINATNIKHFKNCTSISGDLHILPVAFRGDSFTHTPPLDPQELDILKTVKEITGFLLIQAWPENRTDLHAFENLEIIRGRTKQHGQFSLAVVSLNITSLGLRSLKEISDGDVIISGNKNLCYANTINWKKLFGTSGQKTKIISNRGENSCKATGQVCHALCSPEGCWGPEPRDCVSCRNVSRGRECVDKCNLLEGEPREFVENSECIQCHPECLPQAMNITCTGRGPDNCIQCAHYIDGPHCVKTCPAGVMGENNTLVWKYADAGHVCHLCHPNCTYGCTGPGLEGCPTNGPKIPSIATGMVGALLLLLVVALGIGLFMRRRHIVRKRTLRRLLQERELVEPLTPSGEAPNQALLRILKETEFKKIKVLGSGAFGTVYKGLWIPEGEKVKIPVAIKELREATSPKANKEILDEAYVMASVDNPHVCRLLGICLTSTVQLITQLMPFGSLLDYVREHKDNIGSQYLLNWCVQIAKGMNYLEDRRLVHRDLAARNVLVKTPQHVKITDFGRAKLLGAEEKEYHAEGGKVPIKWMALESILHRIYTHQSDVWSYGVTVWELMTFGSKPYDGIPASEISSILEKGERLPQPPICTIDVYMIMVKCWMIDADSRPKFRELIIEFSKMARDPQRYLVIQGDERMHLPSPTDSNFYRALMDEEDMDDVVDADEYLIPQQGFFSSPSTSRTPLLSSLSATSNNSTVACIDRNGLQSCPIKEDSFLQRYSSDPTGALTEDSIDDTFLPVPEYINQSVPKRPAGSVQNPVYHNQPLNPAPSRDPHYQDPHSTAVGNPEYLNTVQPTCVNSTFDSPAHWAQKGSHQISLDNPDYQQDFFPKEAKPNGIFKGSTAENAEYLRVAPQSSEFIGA
T8 sequence (P00533 with tags, fused parts or gaps DEL746-750/T790M limits assumed): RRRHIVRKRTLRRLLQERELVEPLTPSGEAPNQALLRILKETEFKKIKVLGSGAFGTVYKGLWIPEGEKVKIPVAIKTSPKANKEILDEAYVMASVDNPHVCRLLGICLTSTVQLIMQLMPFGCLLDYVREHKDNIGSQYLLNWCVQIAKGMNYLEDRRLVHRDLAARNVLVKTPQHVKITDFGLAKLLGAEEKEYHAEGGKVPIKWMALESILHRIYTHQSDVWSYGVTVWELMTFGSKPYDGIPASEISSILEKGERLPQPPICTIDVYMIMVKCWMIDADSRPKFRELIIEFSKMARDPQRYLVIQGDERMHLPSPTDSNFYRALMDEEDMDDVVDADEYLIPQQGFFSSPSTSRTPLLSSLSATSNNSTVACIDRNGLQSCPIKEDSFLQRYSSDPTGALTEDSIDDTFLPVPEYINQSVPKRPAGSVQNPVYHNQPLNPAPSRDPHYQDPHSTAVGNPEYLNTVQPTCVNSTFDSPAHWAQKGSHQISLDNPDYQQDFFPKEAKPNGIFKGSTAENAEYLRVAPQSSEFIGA
T3 sequence (P00533 with tags, fused parts or gaps DEL746-750/T790M/C797S limits assumed): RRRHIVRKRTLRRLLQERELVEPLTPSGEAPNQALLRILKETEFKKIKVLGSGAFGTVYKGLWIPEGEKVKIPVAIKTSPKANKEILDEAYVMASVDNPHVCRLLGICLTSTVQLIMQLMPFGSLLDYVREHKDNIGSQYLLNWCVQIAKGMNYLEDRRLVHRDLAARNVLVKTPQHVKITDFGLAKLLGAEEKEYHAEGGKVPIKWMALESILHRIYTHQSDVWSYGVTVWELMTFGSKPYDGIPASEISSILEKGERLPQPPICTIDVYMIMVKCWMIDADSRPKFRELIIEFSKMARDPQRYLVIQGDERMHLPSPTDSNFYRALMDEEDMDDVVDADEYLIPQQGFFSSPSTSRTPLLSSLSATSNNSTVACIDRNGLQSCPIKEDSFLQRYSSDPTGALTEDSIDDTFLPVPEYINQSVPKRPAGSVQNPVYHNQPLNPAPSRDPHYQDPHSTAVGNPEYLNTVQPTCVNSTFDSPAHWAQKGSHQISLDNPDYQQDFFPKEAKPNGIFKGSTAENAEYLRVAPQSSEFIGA
T2 sequence (P00533 25-1210 L858R): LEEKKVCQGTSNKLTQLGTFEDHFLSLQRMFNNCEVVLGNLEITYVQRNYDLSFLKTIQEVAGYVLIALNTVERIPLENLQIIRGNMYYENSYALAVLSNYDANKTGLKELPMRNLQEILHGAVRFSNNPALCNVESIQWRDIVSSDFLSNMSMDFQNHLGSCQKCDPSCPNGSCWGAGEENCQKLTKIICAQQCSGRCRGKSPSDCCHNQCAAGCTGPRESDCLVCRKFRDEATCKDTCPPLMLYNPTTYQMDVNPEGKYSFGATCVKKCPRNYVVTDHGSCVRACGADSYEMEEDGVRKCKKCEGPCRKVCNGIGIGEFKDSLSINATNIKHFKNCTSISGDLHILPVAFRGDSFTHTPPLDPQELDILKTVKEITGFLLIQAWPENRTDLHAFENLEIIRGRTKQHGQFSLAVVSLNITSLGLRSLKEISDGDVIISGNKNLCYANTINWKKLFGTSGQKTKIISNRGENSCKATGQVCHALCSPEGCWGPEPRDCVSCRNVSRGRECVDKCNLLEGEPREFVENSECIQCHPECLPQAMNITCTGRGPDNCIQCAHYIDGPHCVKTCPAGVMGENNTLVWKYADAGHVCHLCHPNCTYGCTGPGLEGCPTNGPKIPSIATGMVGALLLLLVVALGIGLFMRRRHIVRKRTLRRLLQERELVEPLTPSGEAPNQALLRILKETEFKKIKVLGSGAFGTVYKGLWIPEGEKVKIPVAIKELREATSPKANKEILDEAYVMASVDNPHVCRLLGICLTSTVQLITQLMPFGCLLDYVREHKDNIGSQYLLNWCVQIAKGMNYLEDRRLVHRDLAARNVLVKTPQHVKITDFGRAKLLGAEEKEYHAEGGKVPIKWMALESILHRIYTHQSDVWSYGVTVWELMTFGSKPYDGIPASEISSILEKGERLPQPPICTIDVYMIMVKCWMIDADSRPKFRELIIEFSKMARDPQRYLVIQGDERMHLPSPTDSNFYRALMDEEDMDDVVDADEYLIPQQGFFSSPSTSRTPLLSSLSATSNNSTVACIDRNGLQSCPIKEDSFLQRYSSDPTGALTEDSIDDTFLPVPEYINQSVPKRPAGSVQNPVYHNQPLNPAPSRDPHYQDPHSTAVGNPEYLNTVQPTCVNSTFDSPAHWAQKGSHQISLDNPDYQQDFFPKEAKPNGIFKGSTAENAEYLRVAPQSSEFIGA

Row | Compound | GI50 ([1]; Homo sapiens, PC-9, 72 h) | IC50 [2] | IC50 [3] | IC50 [4] | GI50 [5, 13] | GI50 [5, 14] | GI50 [5, 15] | GI50 [5, 16] | GI50 [5, 17] | GI50 [5, 18] | GI50 [5, 19] | IC50 [6] | IC50 [7] | IC50 [8] | IC50 [9] | IC50 [10] | GI50 [11, 20] | IC50 [12] | GI50 [1] | GI50 [5, 21] | further results
1 | C[C@@H]1CCCOc2c(cnn2C)-c2cc(cn(C)c2=O)C(=O)Nc2nc3ccc(N4CC5(CCCN5C)C4)cc3n2C1 [Example A44] | 14 nM | 4.9 nM | 34 nM | 3.1 nM | 2 nM | 14 nM | 4.4 nM | 7 nM | 5.3 nM | 27 nM | 16 nM | 15 nM | 3 nM | 8.8 nM | 236 nM | 3.3 nM | 232 nM | 15 nM |  |  | 
2 | C[C@@H]1CCCOc2c(cnn2C)-c2cc(cn(C)c2=O)C(=O)Nc2nc3ccc(N4CCN(C5COC5)CC4)cc3n2C1 [Example A39] | 7.6 nM | 5.9 nM | 74 nM | 5.1 nM | 1.9 nM | 4.7 nM | 5.2 nM | 6.9 nM | 5.4 nM | 16 nM | 8.4 nM | 14 nM | 2.8 nM | 8.2 nM | 1520 nM | 5 nM | 290 nM | 30 nM |  |  | 
3 | Cn1ncc2c1OCCN1CC3CCC(C3)(C1)n1c(nc3ccc(N4CCC(N5CC(F)C5)CC4)cc31)NC(=O)c1cc-2c(=O)n(C)c1 (single isomer, unassigned) [Example A87B] |  | 2.8 nM | 9.3 nM | 8.6 nM |  |  |  |  |  |  |  | 8.8 nM | 4.1 nM | 8.7 nM | 36 nM | 9.5 nM |  | 8.9 nM | 25 nM | 0.7 nM | GI50 [5, 22]: 4 nM; GI50 [5, 23]: 4.6 nM; GI50 [5, 24]: 7.9 nM; GI50 [5, 25]: 7.7 nM; GI50 [5, 26]: 13 nM; GI50 [5, 27]: 3.4 nM; GI50 ([11]; A-431 cells): 5970 nM
4 | Cn1ncc2c1OCCN1CC3CCC(C3)(C1)n1c(nc3ccc(N4CCN(C5CC5)CC4)cc31)NC(=O)c1cc-2c(=O)n(C)c1 (single isomer, unassigned) [Example A83B] |  | 0.96 nM | 5 nM | 2.7 nM |  |  |  |  |  |  |  | 2.8 nM | 0.96 nM | 2.3 nM | 83 nM | 2.7 nM |  | 5 nM | 20 nM | 0.7 nM | GI50 [5, 22]: 10 nM; GI50 [5, 23]: 13 nM; GI50 [5, 24]: 8.9 nM; GI50 [5, 25]: 15 nM; GI50 [5, 26]: 25 nM; GI50 [5, 27]: 10 nM; GI50 ([11]; A-431 cells): 1190 nM
5 | CN1CCN(c2ccc3c(c2)nc2n3C34CCC(CN(CCOc5c(cnn5C)-c5cc(cn(C)c5=O)C(=O)N2)C3)C4)CC1 (stereo not drawn) [Example A60B, 15,21-dimethyl-6-(4-methylpiperazin-1-yl)-23-oxa-2,9,11,15,20,21,26-heptaazaheptacyclo[24.4.1.1^{1,28}.1^{13,17}.0^{2,10}.0^{3,8}.0^{18,22}]tritriaconta-3,5,7,9,13,17(33),18(22),19-octaene-12,16-dione] |  | 3.2 nM | 135 nM | 0.81 nM |  |  |  |  |  |  |  | 49 nM | 1.7 nM | 44 nM | 4480 nM | 0.82 nM |  | 65 nM | 15 nM | 1.4 nM | GI50 [5, 22]: 4.4 nM; GI50 [5, 23]: 21 nM; GI50 [5, 24]: 15 nM; GI50 [5, 25]: 8.4 nM; GI50 [5, 26]: 53 nM; GI50 [5, 27]: 6.9 nM; GI50 ([11]; A-431 cells): 1340 nM
6 | C[C@@H]1CCCOc2c(cnn2C)-c2cc(cn(C)c2=O)C(=O)Nc2nc3ccc(N4CC5(CN(C)C5)C4)cc3n2C1 [Example A40] | 17 nM | 4.4 nM | 11 nM | 4.3 nM | 1.7 nM | 4.2 nM | 4 nM | 5.4 nM | 4.7 nM | 17 nM | 7.7 nM | 6.1 nM | 2.3 nM | 5.2 nM | 71 nM | 4.5 nM | 642 nM | 6.7 nM |  |  | 
7 | C[C@@H]1CCCOc2c(cnn2C)-c2cc(cn(C)c2=O)C(=O)Nc2nc3ccc(N4CCC(N5CCN(C)CC5)C4)cc3n2C1 (stereo partly drawn) [Example A33] | 4.8 nM | 3.1 nM | 7.3 nM | 3.1 nM | 0.4 nM | 0.58 nM | 1.1 nM | 2.2 nM | 2.3 nM | 3.4 nM | 3.2 nM | 5.8 nM | 2.1 nM | 5.2 nM | 22 nM | 3.4 nM | 366 nM | 6 nM |  |  | 
8 | Cn1ncc2c1OCCN1CC3CCC(C3)(C1)n1c(nc3ccc(N4CCC(N5CC(F)C5)C4)cc31)NC(=O)c1cc-2c(=O)n(C)c1 (single isomer, unassigned) [Example A94B1, 5-[3-(3-Fluoroazetidin-1-yl)pyrrolidin-1-yl]-15,21-dimethyl-23-oxa-2,9,11,15,20,21,26-heptaazaheptacyclo[24.4.1.1^{1,28}.1^{13,17}.0^{2,10}.0^{3,8}.0^{18,22}]tritriaconta-3,5,7,9,13,17(33),18(22),19-octaene-12,16-dione] |  | 10 nM | 27 nM | 5 nM |  |  |  |  |  |  |  | 8.8 nM | 3.7 nM | 5 nM | 148 nM | 7.1 nM |  | 15 nM | 16 nM | 0.73 nM | GI50 [5, 22]: 6.5 nM; GI50 [5, 23]: 2 nM; GI50 [5, 24]: 6 nM; GI50 [5, 25]: 3.9 nM; GI50 [5, 26]: 12 nM; GI50 [5, 27]: 3 nM; GI50 ([11]; A-431 cells): 1110 nM
